Assay [1] deals with Nav1.7 null mutant human. Kind of assay: Human processing of tonic radiant heat under naloxone (ratings, EEG). It is filed as in vivo. As to the method: (§1) A Nav1.7 loss of function pain-free […] ([…]) was tested under baseline, saline, and naloxone (6 mg) bolus and 0.1 mg/minute infusion treatment. The forearm was stimulated with radiant heat (CO2 lasers).
We delivered tonic stimuli, at the constant temperature of 42, 45, and 48° C. for 20 sec. ML rated online fluctuations in perceived intensity on a visual analog scale. Identical stimuli were rated higher after administration of naloxone in comparison to both the baseline and saline conditions.
Furthermore, we measured the electroencephalogram (EEG) responses induced by tonic radiant heat stimulation: in other words, we looked at the effect of the nociceptive stimulation on brain rhythms.
(§2) Tonic radiant heat was administered over 25 seconds, while the participants rated online the intensity of the heat on a visual analogue scale. The results are depicted in FIG. 11B.

In another assay the test system is Nav1.7 null mutant mice. Kind of assay: Hargreaves test after naloxone in Nav1.7 null mutant mice. It is filed as in vivo. The note with it: 2 mg/kg naloxone intraperitoneal; Nav1.7 Advill tissue-specific null mutant mice. As to the method:
The analgesia found in Nav1.7 null mutant mice was measured with the Hargreaves apparatus, which is a measure of acute thermal pain (Minett et al. 2011, Minett et al. 2012).
(§3) Thermal nociceptive thresholds were measured using the paw-withdrawal latency according to the method described by Hargreaves et al. (1988), with minor modifications (Minett et al. 2011). Briefly, mice were left to acclimatise within an IITC Hargreaves stand for at least 1 hour. Three withdrawal responses were measured per animal. The mice were then left to resettle for at least 30 minutes before the drug treatment.
(§4) Mice received intraperitoneal injections of either 2 mg/kg naloxone or the equivalent volume of vehicle.

Assay [2] deals with Nav1.7 loss of function pain-free. The experiment in a line: Tactile sensitivity under naloxone. It is filed as in vivo, human. The note with it: baseline, saline and naloxone conditions.
Assay [3] deals with Nav1.7 null mutant human. Kind of assay: Human processing of phasic radiant heat (laser pulses) under naloxone. Format: in vivo. The method, then:
as §1
Laser pulses of the same energy (fluency 0.6 j/mm^2) were given to the forearm. The energy used typically evokes a sensation of sharp pinprick pain in healthy volunteers. […] However, naloxone enhanced the detection rate of laser pulses to 80%. ML felt 37.5% of the detected stimuli as pinprick, while the other sensations were described as a slow heat, or warmth. Ratings were low (mean 6.1, range 0.5-15) in a perceived intensity scale ranging from 0-100.
(§5) We evaluated the probability of detecting 9-ms radiant heat pulses in a Nav1.7 null mutant human patient and in three age-matched, healthy human controls. Radiant heat was used to selectively stimulate intra-epidermal free-nerve endings, without touch. The results are depicted in FIG. 11A.

Assay [4] has as its system Nav1.7 loss of function pain-free. The experiment in a line: Human radiant heat detection thresholds (warmth, pinprick) under naloxone. It is filed as in vivo. The note with it: naloxone 6 mg bolus and 0.1 mg/minute infusion. As to the method: as §1
Warmth threshold reflects activation of unmyelinated C-fibres, while pinprick threshold is mediated by small-myelinated A-delta fibres (LaMotte et al 1978). Detection thresholds were assessed by slowly increasing the temperature of the stimulus (rate 1 deg/sec), after a neutral baseline of variable length (5-10 seconds). The participant was asked to press a button, to stop the stimulus as soon it was detected as warm or pinprick. At baseline, ML perceived only 1 of the 6 stimulus ramps. All the stimuli were detected in the subsequent saline and naloxone sessions.

In another assay the test system is healthy human controls. The experiment in a line: Radiant heat stimuli under naloxone in healthy controls. Format: in vivo. The note with it: healthy patients. As to the method:
as §5, §2

The test system of the next assay is normal mice. The experiment in a line: Hargreaves test after naloxone in normal mice. Format: in vivo. The note with it: 2 mg/kg naloxone intraperitoneal. As to the method: as §3, §4
In assay [5] the target is T1, Nav1.7 (Homo sapiens, UniProt Q15858). The note with it: Escoubas et al. 2006, Bosmans et al. 2005; cited from earlier work.
The target of assay [6] is T1, Nav1.7. Kind of assay: Whole cell voltage clamp of Nav1.7 activity in transfected HEK293 cell line. On the set-up: expressed in transfected cells; host or cells: HEK293. Format: cell-based. The note with it: 0.25 μM, HEK293 cell line transfected with human Nav1.7. The method, then:
Specifically, HEK293 (ATCC) cells are transfected with Nav1.7 or other sodium channel cDNA constructs in a vector co-expressing a fluorescent marker protein using lipofectamine 2000 or other transfection method and plated onto poly-d-lysine coated coverslips. All recordings are done 24-72 hours after transfection
Whole-cell voltage clamp recordings are performed using an Axopatch 200 B amplifier at room temperature using standard techniques. Extracellular solution comprised (mM) NaCl 145, KCl 4, CaCl2 1.8, MgCl2 1, HEPES 10, (pH 7.35 with NaOH); intracellular (mM) CsCl 150, EGTA 10, HEPES 10, (pH 7.35 with CsOH). […] Tau of inactivation was measured by fitting a standard exponential function to the decaying current and persistent current was determined by measuring the current 20 ms after the start of the voltage step and expressing it as a percentage of the transient current in the same step. To assess voltage dependence of activation current-voltage families were obtained and peak sodium currents measured at each voltage. Channel conductance was calculated using the formula GNa=I/(V−Vrev) where GNa is sodium conductance, I is peak current, V is the voltage step and Vrev is the measured reversal potential which was determined for each cell by fitting a straight line through the linear portion of the current-voltage relationship. […]

Assay [7] concerns murine acute thermal pain model. Kind of assay: Hargreaves test, murine acute thermal pain model, intraplantar drug treatment. The note with it: 1 μg of each drug, 20 μl intraplantar injection, compared with control mice.
Experimental: (§6) Mice received 20 μl intraplantar injections of either; • 1 μg Phlotoxin-1, • 1 μg Buprenorphine, • combined 1 μg Phlotoxin-1 and 1 μg Buprenorphine • or vehicle.
For assay [8], the system named is inflammatory hyperalgesia in a murine thermal pain model. Kind of assay: Complete Freund's Adjuvant thermal hyperalgesia, Hargreaves test (Example 2). The note with it: intraplantar 1 microgram each; three days post CFA. Format: in vivo, mice.
Experimental: Baseline thermal thresholds were recorded for each animal before 20 μl Complete Freund's Adjuvant (Sigma) was injected subcutaneously into the plantar aspect of a hind paw using a Hamilton syringe and 30 G needle. Three days post Complete Freund's Adjuvant injections thermal threshold were measured before to drug treatment.
as §6
Assay [9] concerns the target T1, Nav1.7. The note with it: Yang et al. 2013; read-out: IC50 for inhibition of Nav1.7; cited from earlier work.
Where [10] appears, read: scale ranging from 0-100, naloxone.

T1 sequence (Q15858 whole entry): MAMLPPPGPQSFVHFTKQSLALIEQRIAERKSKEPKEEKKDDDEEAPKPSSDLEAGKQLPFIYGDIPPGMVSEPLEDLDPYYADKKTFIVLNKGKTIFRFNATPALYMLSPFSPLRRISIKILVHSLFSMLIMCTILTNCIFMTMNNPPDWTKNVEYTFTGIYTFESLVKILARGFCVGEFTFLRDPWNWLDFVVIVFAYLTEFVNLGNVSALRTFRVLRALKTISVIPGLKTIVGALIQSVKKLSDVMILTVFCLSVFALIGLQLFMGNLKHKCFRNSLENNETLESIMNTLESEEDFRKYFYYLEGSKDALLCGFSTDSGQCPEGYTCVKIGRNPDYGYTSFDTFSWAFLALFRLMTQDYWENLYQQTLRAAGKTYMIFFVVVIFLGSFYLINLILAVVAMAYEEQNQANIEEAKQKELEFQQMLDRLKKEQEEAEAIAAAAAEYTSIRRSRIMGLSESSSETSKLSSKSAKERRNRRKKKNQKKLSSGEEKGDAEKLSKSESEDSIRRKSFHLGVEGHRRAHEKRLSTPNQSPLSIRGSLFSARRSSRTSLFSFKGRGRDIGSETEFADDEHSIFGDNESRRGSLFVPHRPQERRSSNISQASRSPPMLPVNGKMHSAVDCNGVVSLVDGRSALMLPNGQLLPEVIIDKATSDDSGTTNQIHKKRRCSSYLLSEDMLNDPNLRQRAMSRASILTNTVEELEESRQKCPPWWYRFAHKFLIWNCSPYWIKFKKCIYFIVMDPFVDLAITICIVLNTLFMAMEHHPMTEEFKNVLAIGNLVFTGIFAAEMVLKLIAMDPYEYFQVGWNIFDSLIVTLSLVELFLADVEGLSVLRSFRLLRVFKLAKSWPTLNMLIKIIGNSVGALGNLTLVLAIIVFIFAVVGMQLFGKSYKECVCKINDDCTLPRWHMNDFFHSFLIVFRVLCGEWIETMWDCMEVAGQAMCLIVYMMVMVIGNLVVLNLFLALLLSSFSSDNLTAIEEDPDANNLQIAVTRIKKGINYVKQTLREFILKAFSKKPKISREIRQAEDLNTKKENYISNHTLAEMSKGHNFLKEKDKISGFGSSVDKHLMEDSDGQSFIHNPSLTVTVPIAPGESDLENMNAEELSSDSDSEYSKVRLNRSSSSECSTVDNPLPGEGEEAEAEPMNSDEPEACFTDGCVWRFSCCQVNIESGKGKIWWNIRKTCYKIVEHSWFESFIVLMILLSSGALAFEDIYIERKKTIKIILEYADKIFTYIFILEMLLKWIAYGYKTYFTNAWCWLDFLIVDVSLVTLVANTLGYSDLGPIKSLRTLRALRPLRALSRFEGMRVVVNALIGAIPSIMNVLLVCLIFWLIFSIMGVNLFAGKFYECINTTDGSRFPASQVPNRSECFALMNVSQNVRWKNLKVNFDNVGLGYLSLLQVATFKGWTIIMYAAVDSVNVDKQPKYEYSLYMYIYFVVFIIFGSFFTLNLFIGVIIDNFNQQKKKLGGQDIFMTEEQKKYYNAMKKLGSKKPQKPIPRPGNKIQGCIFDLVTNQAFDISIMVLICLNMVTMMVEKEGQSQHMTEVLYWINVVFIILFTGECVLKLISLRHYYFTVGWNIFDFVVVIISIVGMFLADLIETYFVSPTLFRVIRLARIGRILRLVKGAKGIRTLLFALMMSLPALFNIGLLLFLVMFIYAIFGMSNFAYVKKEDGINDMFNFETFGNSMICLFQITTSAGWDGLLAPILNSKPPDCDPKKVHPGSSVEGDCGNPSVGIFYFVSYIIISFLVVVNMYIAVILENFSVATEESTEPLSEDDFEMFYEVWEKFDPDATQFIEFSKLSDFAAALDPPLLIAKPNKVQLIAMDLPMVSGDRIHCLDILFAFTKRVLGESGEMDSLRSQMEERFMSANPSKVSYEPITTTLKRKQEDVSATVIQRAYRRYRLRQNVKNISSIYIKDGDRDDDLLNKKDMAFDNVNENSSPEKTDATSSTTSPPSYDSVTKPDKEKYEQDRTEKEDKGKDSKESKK

For the compound `C=CCN1CC[C@]23c4c5ccc(O)c4O[C@H]2C(=O)CC[C@@]3(O)[C@H]1C5` [naloxone], the “perceived intensity rating of tonic stimuli (visual analog scale) versus baseline and saline” value in the assay on Nav1.7 null mutant human [1] (42, 45 and 48° C. for 20 sec, naloxone) is recorded as “rated higher”. Further, in the assay on Nav1.7 null mutant human [1] (naloxone), the “EEG alpha and beta power during tonic radiant heat” value is on record as “reduced”; the “EEG low and high gamma induced oscillations relative to baseline and saline” value is “enhancement”. Besides, in the assay on Nav1.7 null mutant human [1] (tonic radiant heat over 25 seconds, Nav1.7 null human), the “intensity ratings of tonic radiant heat on visual analogue scale (Example 14)” value was “strongly increased”. In addition, the “effect on the analgesia of Nav1.7 null mutant mice, Hargreaves test” value in the assay on Nav1.7 null mutant mice is “partially reverses”. The tactile sensitivity entry in assay [2] was “remained unchanged”. Besides, the “probability of detecting 9-ms radiant heat pulses” value with Nav1.7 null mutant human [3] (bolus of 6 mg naloxone followed by infusion at 0.1 mg/minute, Nav1.7 null mutant) was determined as 80%. For the same compound, the “detection rate of laser pulses” value with Nav1.7 null mutant human [3] (fluency 0.6 j/mm2, forearm, naloxone, none perceived at baseline and saline) is on record as 80%. Also, in the assay with Nav1.7 null mutant human [3] (naloxone), the “detected stimuli felt as pinprick” value came to 37.5%. In addition, in the assay on Nav1.7 null mutant human [3] (setting [10]), the “perceived intensity rating of laser pulses, mean” value was determined as 6.1 and the “perceived intensity rating of laser pulses, range” value is 0.5-15. Further, the “trials in which pinprick stimuli were reported "surprisingly uncomfortable"” value in [4] came out at 66%. In addition, in assay [4] (forearm radiant heat), the “reduction of pinprick detection thresholds relative to saline” value worked out at 1.7 °C and the “reduction of warmth detection thresholds relative to saline” value was 7 °C. Also, in the assay on healthy human controls, the “sensitisation to noxious stimuli (phasic and tonic radiant heat)” value was “no effect”. Besides, in the assay on normal mice, the “effect on pain thresholds, Hargreaves test” value is given as “does not alter pain thresholds”.
Turning to Phlotoxin-1, at Nav1.7 [5], the “selective affinity for Nav1.7 compared to other expressed sodium channels” value is reported as “sub-micromolar”. Also, the “inhibition of functional Nav1.7 voltage-gated channel activity” value on Nav1.7 [6] was “completely inhibits”. Also, in [7], the “analgesia in the Hargreaves test (paw-withdrawal latency)” value is “no analgesia”. Also, the “effect on inflammatory (CFA) thermal hyperalgesia, Hargreaves test” value in [8] is listed as “much lesser effects”.
For the compound μ-SLPTX-Ssm6a, the IC50 (commonly the concentration that inhibits the measured activity by half) on Nav1.7 [9] is roughly 0.025 µM.
